According to US10703757B2, “Compounds and methods for CDK8 modulation and indications therefor” (Plexxikon Inc., priority 2016, dated 2020):
pIC50: −log10 of the molar value.

Legend:
[1] = system: CDK8 (TCF/LEF luciferase reporter in HCT116 cells); assay: Cell based TCF/LEF reporter assay (HCT116+TCF/LEF luciferase); details: Homo sapiens, HCT-116, 24 h
From the text: Determine Inhibitor Activity Against CDK8 in Cell Based TCF/LEF Reporter Assay
The colorectal carcinoma cell line HCT116 was stably transduced with lentivirus encoding the TCF/LEF promoter upstream of a luciferase reporter gene (Qiagen) and single cell clones expressing this construct (referred to as HCT116+TCF/LEF) were isolated. HCT116 express endogenous mutant β-catenin^3, resulting in up-regulation of transcription through the TCF/LEF promoter. Expression of the TCF/LEF reporter construct in HCT116 results in constitutive expression of luciferase. Treatment of the cells with inhibitors of components of the β-catenin signaling pathway (such as CDK8) results in decreased expression of luciferase. The assay is performed as follows. The HCT116+TCF/LEF cell line is seeded in a 96 well plate in 50 μL of culture media at 1×10^4 cells/well and incubated at 37° C. overnight. Serial dilutions of compounds (in total volume of 50 μL culture media) are added to the cells and incubated at 37° C. for 24 hours. 4 wells of DMSO treated cells serve as high controls and cells treated with 10 uM of the reference compound CCT251545 (a known CDK8 inhibitor)^4 serve as low controls. The viability of the cells is assayed by the addition of […] reagent (Promega) followed by 30 minute incubation at 37° C. and quantification of the fluorescent signal (Ex400/Em505). The luciferase expression is then assayed by the addition of 25 μL ONE-Glo reagent (Promega) followed by 10 minute incubation at room temperature and quantification of the luminescence signal. The luminescence signal is normalized to the fluorescence signal to correct for any loss in cell viability over the 24 hour compound incubation period. The percentage inhibition at individual concentrations relative to high and low controls is calculated. The data are analyzed by using nonlinear regression to generate IC50 values.

[2] = system: CDK8 (phosphorylation of STAT1 at serine 727 in A549 cells); assay: Cell based Phospho-STAT1 assay (IFNγ-stimulated A549 cells, AlphaLISA); details: Homo sapiens, A549, A549 cells, phospho-STAT1 after IFNγ stimulation
Summary of the method: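 A549 cells given serial compound dilutions for 1 h at 37 °C, then stimulated with IFNγ at 10 ng/mL final for 30 min. Lysate STAT1 Ser727 phosphorylation measured by AlphaLISA; % inhibition vs stimulated/unstimulated DMSO controls, IC50 by nonlinear regression.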

| SMILES | pIC50 [1] | pIC50 [2] |
| --- | --- | --- |
| N#CC1CCC(c2cccn3ncc(-c4ccc(-n5ccnn5)cc4)c23)CC1 (mixture of isomers) [Compound P-0217, (1r,4r) and (1s,4s)-4-[3-[4-(triazol-1-yl)phenyl]pyrazolo[1,5-a]pyridin-4-yl]cyclohexanecarbonitrile] | 7.00 to 10.00 | 7.00 to 10.00 |
| CC(C)(O)Cn1cc(-c2ccc(-c3cnn4ccnc(C5CCC(C#N)CC5)c34)c(F)c2)cn1 (stereo not drawn) [Compound P-0001, (1s,4s)-4-(3-(2-fluoro-4-(1-(2-hydroxy-2-methylpropyl)-1H-pyrazol-4-yl)phenyl)pyrazolo[1,5-a]pyrazin-4-yl)cyclohexane-1-carbonitrile] | 7.00 to 10.00 | 7.00 to 10.00 |
| N#CCCCn1cc(-c2ccc(-c3cnn4ccnc(C5CCC(C#N)CC5)c34)cc2)cn1 (stereo not drawn) [Compound P-0002, (1s,4s)-4-(3-(4-(1-(3-cyanopropyl)-1H-pyrazol-4-yl)phenyl)pyrazolo[1,5-a]pyrazin-4-yl)cyclohexane-1-carbonitrile] | 7.00 to 10.00 | 7.00 to 10.00 |
| Cn1cc(-c2ccc(-c3cnn4ccnc(C#CC(C)(C)C(N)=O)c34)cc2)cn1 [Compound P-0003, 2,2-dimethyl-4-(3-(4-(1-methyl-1H-pyrazol-4-yl)phenyl)pyrazolo[1,5-a]pyrazin-4-yl)but-3-ynamide] | 7.00 to 10.00 | 7.00 to 10.00 |
| CC(C)(C#Cc1nccn2ncc(-c3ccc(-c4cnn(CCC#N)c4)cc3)c12)C(N)=O [Compound P-0004, 4-(3-(4-(1-(2-cyanoethyl)-1H-pyrazol-4-yl)phenyl)pyrazolo[1,5-a]pyrazin-4-yl)-2,2-dimethylbut-3-ynamide] | 7.00 to 10.00 | 7.00 to 10.00 |
| CC(C)(C#Cc1cccn2ncc(-c3ccc(-c4cnn(CCC#N)c4)cc3)c12)C(N)=O [Compound P-0005, 4-(3-(4-(1-(2-cyanoethyl)-1H-pyrazol-4-yl)phenyl)pyrazolo[1,5-a]pyridin-4-yl)-2,2-dimethylbut-3-ynamide] | 7.00 to 10.00 | 7.00 to 10.00 |
| CC(C)(O)Cn1cc(-c2ccc(-c3cnn4cccc(C#CC(C)(C)C(N)=O)c34)cc2)cn1 [Compound P-0006, 4-(3-(4-(1-(2-hydroxy-2-methylpropyl)-1H-pyrazol-4-yl)phenyl)pyrazolo[1,5-a]pyridin-4-yl)-2,2-dimethylbut-3-ynamide] | 7.00 to 10.00 | 7.00 to 10.00 |
| N#CC1CCC(c2nccn3ncc(-c4ccc(-c5cnn(CCF)c5)cc4)c23)CC1 (stereo not drawn) [Compound P-0007, (1s,4s)-4-(3-(4-(1-(2-fluoroethyl)-1H-pyrazol-4-yl)phenyl)pyrazolo[1,5-a]pyrazin-4-yl)cyclohexane-1-carbonitrile] | 7.00 to 10.00 | 7.00 to 10.00 |
| N#CC1CC=C(c2nccn3ncc(-c4ccc(OCC(F)(F)F)c(F)c4)c23)CC1 (stereo not drawn) [Compound P-0037, 4-(3-(3-fluoro-4-(2,2,2-trifluoro-ethoxy)phenyl)pyrazolo[1,5-a]pyrazin-4-yl)cyclohex-3-ene-1-carbonitrile] | 6.00 to 7.00 | – |
| CC(C)(C#Cc1cccn2ncc(-c3ccc(N4CCOCC4)c(F)c3)c12)C(=O)O [Compound P-0092, 4-(3-(3-fluoro-4-morpholinophenyl)pyrazolo[1,5-a]pyridin-4-yl)-2,2-dimethylbut-3-ynoic acid] | 6.00 to 7.00 | – |
| CC(C)(O)Cn1cc(-c2ccc(-c3cnn4cccc(C#CC(C)(C)C(=O)O)c34)cc2)cn1 [Compound P-0093, 4-(3-(4-(1-(2-hydroxy-2-methylpropyl)-1H-pyrazol-4-yl)phenyl)pyrazolo[1,5-a]pyridin-4-yl)-2,2-dimethylbut-3-ynoic acid] | 6.00 to 7.00 | – |
| N#CC1CC=C(c2c(-c3ccc4c(cnn4CC4(C(=O)O)CC4)c3)cnc3[nH]ccc23)CC1 (stereo not drawn) [Compound P-0108, 1-((5-(4-(4-cyanocyclohex-1-en-1-yl)-1H-pyrrolo[2,3-b]pyridin-5-yl)-1H-indazol-1-yl)methyl)cyclopropane-1-carboxylic acid] | 6.00 to 7.00 | – |
| Cc1cc(-c2ccc(-c3cnc4[nH]ccc4c3N3CCC(C#N)CC3)cc2)n[nH]1 [Compound P-0175, 1-(5-(4-(5-methyl-1H-pyrazol-3-yl)phenyl)-1H-pyrrolo[2,3-b]pyridin-4-yl)piperidine-4-carbonitrile] | 7.00 to 10.00 | – |
| O=C(O)C1CC=C(c2cccn3ncc(-c4ccc(-n5ccnn5)cc4)c23)CC1 (stereo not drawn) [Compound P-0212, 4-(3-(4-(1H-1,2,3-triazol-1-yl)phenyl)pyrazolo[1,5-a]pyridin-4-yl)cyclohex-3-ene-1-carboxylic acid] | 6.00 to 7.00 | – |
| N#CC1CCN(c2cccn3ncc(-c4ccc(S(=O)(=O)N5CCCCC5)cc4)c23)CC1 [Compound P-0256, 1-(3-(4-(piperidin-1-ylsulfonyl)phenyl)pyrazolo[1,5-a]pyridin-4-yl)piperidine-4-carbonitrile] | 5.00 to 6.00 | – |
| CC(=O)N1CC=C(c2cccc3ncc(-c4ccc(-c5cnn(C)c5)cc4)n23)CC1 [Compound P-0436, 1-(4-(3-(4-(1-methyl-1H-pyrazol-4-yl)phenyl)imidazo[1,2-a]pyridin-5-yl)-3,6-dihydropyridin-1(2H)-yl)ethan-1-one] | – | 5.00 to 6.00 |
| CN1CCC(Oc2cccc3ncc(-c4ccc(-c5cnn(C)c5)cc4)n23)CC1 [Compound P-0439, 3-(4-(1-methyl-1H-pyrazol-4-yl)phenyl)-5-((1-methylpiperidin-4-yl)oxy)imidazo[1,2-a]pyridine] | – | 7.00 to 10.00 |
| CNC(=O)C1CC=C(c2cccn3ncc(-c4ccc(-c5cnn(C)c5)cc4)c23)CC1 (stereo not drawn) [Compound P-0442, N-methyl-4-(3-(4-(1-methyl-1H-pyrazol-4-yl)phenyl)pyrazolo[1,5-a]pyridin-4-yl)cyclohex-3-ene-1-carboxamide] | – | 7.00 to 10.00 |
| CCOC(=O)C1CC=C(c2cccn3ncc(-c4ccc(-c5cnn(C)c5)cc4)c23)CC1 (stereo not drawn) [Compound P-0446, ethyl 4-(3-(4-(1-methyl-1H-pyrazol-4-yl)phenyl)pyrazolo[1,5-a]pyridin-4-yl)cyclohex-3-ene-1-carboxylate] | – | 6.00 to 7.00 |

Other lines, results leading:

| pIC50 [1] | pIC50 [2] | SMILES |
| --- | --- | --- |
| – | 5.00 to 6.00 | Cn1cc(-c2ccc(-c3cnc4cccc(N5CCC(CO)CC5)n34)cc2)cn1 [Compound P-0434, [1-[3-[4-(1-methylpyrazol-4-yl)phenyl]imidazo[1,2-a]pyridin-5-yl]-4-piperidyl]methanol] |
| – | 7.00 to 10.00 | N#CC1CCN(c2cccc3ncc(-c4ccc(-c5cnn(C(F)F)c5)cc4)n23)CC1 [Compound P-0440, 1-(3-(4-(1-(difluoromethyl)-1H-pyrazol-4-yl)phenyl)imidazo[1,2-a]pyridin-5-yl)piperidine-4-carbonitrile] |
| – | 7.00 to 10.00 | O=C1Nc2ccccc2C12CCN(c1cccc3ncc(-c4ccc(-c5cnn(C(F)F)c5)cc4)n13)CC2 [Compound P-0441, 1′-(3-(4-(1-(difluoromethyl)-1H-pyrazol-4-yl)phenyl)imidazo[1,2-a]pyridin-5-yl)spiro[indoline-3,4′-piperidin]-2-one] |
| – | 7.00 to 10.00 | CCOC(=O)C1CCN(c2cccc3ncc(-c4ccc(-c5cnn(C)c5)cc4)n23)CC1 [Compound P-0447, ethyl 1-(3-(4-(1-methyl-1H-pyrazol-4-yl)phenyl)imidazo[1,2-a]pyridin-5-yl)piperidine-4-carboxylate] |
| – | 5.00 to 6.00 | N#CC1CCN(c2cccc3ncc(-c4ccc(CNC(=O)c5cccnc5)cc4)n23)CC1 [Compound P-0448, N-(4-(5-(4-cyanopiperidin-1-yl)imidazo[1,2-a]pyridin-3-yl)benzyl)nicotinamide] |
| – | 5.00 to 6.00 | O=C(NCc1ccc(-c2cnc3cccc(N4CCC5(CCNC5=O)CC4)n23)cc1)c1cccnc1 [Compound P-0449, N-(4-(5-(1-oxo-2,8-diazaspiro[4.5]decan-8-yl)imidazo[1,2-a]pyridin-3-yl)benzyl)nicotinamide] |
| – | 7.00 to 10.00 | Cn1cc(-c2ccc(-c3cnc4cccc(N5CCC6(CCNC6=O)CC5)n34)cc2)cn1 [Compound P-0450, 8-(3-(4-(1-methyl-1H-pyrazol-4-yl)phenyl)imidazo[1,2-a]pyridin-5-yl)-2,8-diazaspiro[4.5]decan-1-one] |
| – | 7.00 to 10.00 | Cn1cc(-c2ccc(-c3cnc4cccc(N5CCC(C#N)(c6ccccc6)CC5)n34)cc2)cn1 [Compound P-0451, 1-(3-(4-(1-methyl-1H-pyrazol-4-yl)phenyl)imidazo[1,2-a]pyridin-5-yl)-4-phenylpiperidine-4-carbonitrile] |
| – | 6.00 to 7.00 | Cn1cc(Nc2ncc(-c3cnc4cccc(N5CCC6(CC5)C(=O)Nc5ccccc56)n34)cn2)cn1 [Compound P-0453, 1′-(3-(2-((1-methyl-1H-pyrazol-4-yl)amino)pyrimidin-5-yl)imidazo[1,2-a]pyridin-5-yl)spiro[indoline-3,4′-piperidin]-2-one] |
